Laboratory results published in publication PMC8533089, “Characteristics of Neurokinin-3 Receptor and Its Binding Sites by Mutational Analysis” (Biology, 2021).
Where two headings read alike, the source gives them in different places. Values belong to the molecule of their own block, whether it stands above or below them. Where no end group is shown, it is not given here.

Tests used:
FSH levels = conditions: daily oral dosing throughout the menstrual cycle; cited from earlier work
Excerpt: (§1) The effect of NKB/NKF peptides on gonadotropin secretion in fish is already well established. The first indication that NKB is widely expressed in fish species and has a stimulatory reproductive effect was shown in zebrafish, goldfish, and tilapia. […] Osetanant re ...

FSH plasma levels = test: In vivo effect of NKB antagonists on FSH plasma levels (ELISA); parameters: species or system adult male tilapia (Oreochromis niloticus); conditions: antagonist 100 µg/kg BW IP, sGnRHa 10 µg/kg BW after 0.5 h; n = 10
Experimental: (§2) The levels of FSH, LH and GH in the plasma were measured by specific competitive enzyme-linked immunosorbent assay (ELISA), developed for tilapia, based on recombinant gonadotropins or GH that were created by using the yeast Pichia pastoris. For the ELISAs, we used primary antibody antisera against GH [51], FSHβ [52], or against rtLHβ [53], and rtFSHβα [52], rtLHβ [53] or tiGH for the standard curves. Sensitivity for the plasma measurements were 15.84 pg/mL for LH, 0.24 pg/mL for FSH and 30.0 pg/mL for GH. The inter-assay coefficient of variation (CV) was 14.8, 12.5, and 13.0%, while intra-assay CV was 7.2, 8.0, and 8.0% for LH, FSH and GH, respectively.
Adult male tilapia (BW 89.29 ± 32.93 g; gonado-somatic index (GSI) 0.24% ± 0.40%) were injected IP (intraperitoneal) with NKB antagonists, SB-222200 or Osanetant (100 µg/kg BW), and after 0.5 h, a second injection of sGnRHa (10 µg/kg BW) was added. Control groups were injected with sGnRHa ([DAla^6, Pro^9-Net]-mammalian GnRH; Bachem, Budendorf, Switzerland) 10 µg/kg BW) as a positive control. The fish were bled from the caudal blood vessels into heparinized syringes 0, 0.5, 2, 6 and 24 h after injection. This time course is according to standard protocols used previously to test the effect of GnRH on circulating levels of LH, FSH, and GH in tilapia. […]

tiTac3Ra = tiTac3Ra (Oreochromis niloticus, UniProt A0A075QPN8); test: CRE-Luc antagonist assay, wild-type receptor, COS-7; format: cell-based, tilapia (Oreochromis niloticus); conditions: for IC50: antagonist 0.001–1000 μM added 10 min before peptide, COS-7, CRE-Luc
Experimental: (§3) In order to study the signaling pathways of the mutant tiTac3Ra, the entire coding regions of tiTac3Ra (GenBank accession no. KF471674), and both of the mutant receptors were inserted into pcDNA3.1 (Invitrogen, Massachusetts, United States). We used a sensitive luciferase (LUC) reporter gene assay. […] Transient transfection, cell procedures and stimulation protocols followed the procedures previously described. Briefly, 3 μg of each construct, together with 3 μg of a luciferase reporter plasmid were transiently transfected into COS-7 cells (American Type Culture Collection, Manassas, VA, USA). Forty-eight hours after transfection, cells transfected with Tac3Ra plasmid fused with GFP were applied with an Hoechst dye (Invitrogen, Massachusetts, United States; diluted 1:1000) in order to mark nuclei in the culture for transfection analysis.
Non-peptide molecules, SB-222200 (Sigma, Merck, Darmstadt, Germany) and Osanetant (Axon Medchem, Reston, VA, USA), known to antagonize mammalian NK3R [49] were studied for their ability to antagonize tiTac3Ra, which was activated with a fixed dose of the native ligands (10 nM tiNKB or tiNKF), combined with increasing doses of the antagonists (0.001–1000 μM). The antagonists were added 10 min prior to the addition of the peptides. IC50 values were calculated from concentration response curves by means of computerized nonlinear curve-fitting with Prism version 9 software (GraphPad, San Diego, CA, USA). All experiments were repeated at least 3 times using cells from independent transfections, each performed in triplicate.
NKB antagonists, SB-222200 (Figure 7A) and Osanetant (Figure 7B) were added in increasing concentrations (0.001–1000 μM) to transfected COS-7 that expressed tiTac3Ra. Ten minutes after the induction of the antagonists, the ligand, tiNKB or tiNKF (10 nM) was added to the media.

LH plasma levels = test: In vivo effect of NKB antagonists on LH plasma levels (ELISA); parameters: species or system adult male tilapia (Oreochromis niloticus); conditions: antagonist 100 µg/kg BW IP, then sGnRHa 10 µg/kg BW after 0.5 h; n = 10
Experimental: as §2
Adult male tilapia (BW 89.29 ± 32.93 g; gonado-somatic index (GSI) 0.24% ± 0.40%) were injected IP (intraperitoneal) with NKB antagonists, SB-222200 or Osanetant (100 µg/kg BW), and after 0.5 h, a second injection of sGnRHa (10 µg/kg BW) was added. Control groups were injected with sGnRHa ([DAla^6, Pro^9-Net]-mammalian GnRH; Bachem, Budendorf, Switzerland) 10 µg/kg BW) as a positive control. The fish were bled from the caudal blood vessels into heparinized syringes 0, 0.5, 2, 6 and 24 h after injection. This time course is according to standard protocols used previously to test the effect of GnRH on circulating levels of LH, FSH, and GH in tilapia. Blood samples were collected from the caudal vasculature and centrifuged (3200 rpm for 30 min at 4 °C) (Centrifuge: Fresco 17, Rotor: 75003424, Thermo Scientific™, Langenselbold Germany) to obtain plasma samples, which were stored at −20 °C until assayed. Three independent experiments were carried out for the in-vivo studies.

FSH and LH release = conditions: in vivo and in vitro; cited from earlier work
Excerpt: as §1

[1] = molecular target: native tilapia Tac3Ra (WT); test: CRE-Luc receptor transactivation assay, wild-type receptor, COS-7; format: cell-based, tilapia (Oreochromis niloticus)
Experimental: as §3
(§4) Cells transfected with the tiTac3Ra construct and luciferase reporter plasmid were treated with tilapia NKB (tiNKB) and tiNKF at increasing doses (0.2–1000 nM). Luciferase activity (Luc) was measured, and compared to basal treatment, and the maximal effect (Luc fold activation) was calculated for each treatment.

tiTac3Ra mutant M289A = test: CRE-Luc receptor transactivation assay, M289A mutant, COS-7; format: cell-based, tilapia (Oreochromis niloticus)
Excerpt: (§5) The expression vector for tilapia tiTac3Ra (GenBank accession no. KF471674) was modified with the Stratagene QuikChange mutagenesis kit (Stratagene, La Jolla, CA, USA), according to the manufacturer’s instructions using two complementary primers (Table 1). The procedure included 18 PCR cycles as specified by the manufacturer’s manual, and the use of Pfu polymerase for the reaction. The mutated construct was then digested with the restriction enzyme DpnI, which is specific to methylated and hemi-methylated DNA, to digest the template and to select the mutation-containing synthesized DNA. The vector was then transfected into XL1 competent cells (E.coli). Two colonies were sequenced and confirmed to contain the mutation without any undesired misincorporation of nucleotides.
(§6) In order to study the signaling pathways of the mutant tiTac3Ra, the entire coding regions of tiTac3Ra (GenBank accession no. KF471674), and both of the mutant receptors were inserted into pcDNA3.1 (Invitrogen, Massachusetts, United States). We used a sensitive luciferase (LUC) reporter gene assay. […]
as §4

tiTac3Ra mutant F251A = test: CRE-Luc receptor transactivation assay, F251A mutant, COS-7; format: cell-based, tilapia (Oreochromis niloticus)
Excerpt: as §5, §6, §4

[2] = molecular target: tilapia Tachykinin 3 receptor a (tiTac3Ra), wild type (Nile tilapia (Oreochromis niloticus))
[3] = molecular target: tiTac3Ra F251A mutant (Nile tilapia (Oreochromis niloticus))
[4] = molecular target: tiTac3Ra M289A mutant (Nile tilapia (Oreochromis niloticus))

Chain of tiTac3Ra (A0A075QPN8 entry or part of it): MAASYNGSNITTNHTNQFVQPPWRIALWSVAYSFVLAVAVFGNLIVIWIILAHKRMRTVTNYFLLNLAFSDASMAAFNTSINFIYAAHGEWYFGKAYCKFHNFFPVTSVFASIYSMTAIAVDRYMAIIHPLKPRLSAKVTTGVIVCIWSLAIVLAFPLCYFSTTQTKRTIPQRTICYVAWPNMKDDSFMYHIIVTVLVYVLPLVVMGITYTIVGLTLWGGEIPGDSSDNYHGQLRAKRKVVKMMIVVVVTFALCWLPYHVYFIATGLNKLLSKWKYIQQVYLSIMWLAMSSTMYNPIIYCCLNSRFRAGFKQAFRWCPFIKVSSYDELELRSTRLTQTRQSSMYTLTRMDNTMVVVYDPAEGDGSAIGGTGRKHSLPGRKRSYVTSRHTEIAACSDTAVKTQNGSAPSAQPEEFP

Molecule: Cc1nsc(-c2nnc3n2CCN(C(=O)c2ccc(F)cc2)[C@@H]3C)n1 [ESN364]
FSH levels (FSH levels): did not alter FSH levels

IC50 (tiTac3Ra; 10 nM tiNKB, read-out: IC50 versus tiNKB): 212000 nM
IC50 (tiTac3Ra; 10 nM tiNKF, read-out: IC50 versus tiNKF): 122000 nM
inhibitory effect on Tac3Ra activation (tiTac3Ra; in words): strong inhibitory effect
Molecule: CC(=O)N(C)C1(c2ccccc2)CCN(CCC[C@]2(c3ccc(Cl)c(Cl)c3)CCCN(C(=O)c3ccccc3)C2)CC1 [Osanetant]
FSH levels, 2 h post injection, combination with sGnRHa (FSH plasma levels): increased FSH levels
LH release, combination with sGnRHa (LH plasma levels): no inhibitory effects on LH plasma levels

Molecule: Succ-Asp-Ile-Phe-N(Me)Ile-Gly-Leu-Met-NH2 [tiNKB analog, tiNKB analog (Succ-Asp-Ile-Phe-N(Me)Ile-Gly-Leu-Met-NH2)]
FSH and LH release (FSH and LH release): significantly increased FSH and LH release both in-vivo and in-vitro

Molecule: Succ-Asp-Ile-Phe-N(Me)Val-Gly-Leu-Met-NH2 [zfNKBa analog, zfNKBa analog (Succ-Asp-Ile-Phe-N(Me)Val-Gly-Leu-Met-NH2)]
FSH and LH release (FSH and LH release): significantly increased FSH and LH release both in-vivo and in-vitro

Molecule: Succ-Asp-Phe-N(Me)Val-Gly-Leu-Met-NH2 [zfNKBb analog, zfNKBb analog (Succ-Asp-Phe-N(Me)Val-Gly-Leu-Met-NH2)]
FSH and LH release (FSH and LH release): significantly increased FSH and LH release both in-vivo and in-vitro

Molecule: Succ-Asp-Ser-Phe-N(Me)Val-Gly-Leu-Met-NH2 [NKF analog, NKF analog (Succ-Asp-Ser-Phe-N(Me)Val-Gly-Leu-Met-NH2)]
FSH and LH release (FSH and LH release): significantly increased FSH and LH release both in-vivo and in-vitro

Molecule: pyroglutaminated [p]-EMDDIFIGLM-NH2 [tiNKB, native tilapia Neurokinin B peptide, synthesized by GL Biochem]
EC50 ([1]; CRE-Luc, COS-7, 0.2–1000 nM, calculated when max effect >2.0): 2.48 ± 0.05 nM
Min effective dose ([1]; CRE-Luc, COS-7, WT): 0.316 nM
Max effect (Luc fold activation) ([1]; WT, COS-7, CRE-Luc, vs basal, 0.2–1000 nM): 3.36 ± 0.46 Luc fold activation
Max effect (Luc fold activation) (tiTac3Ra mutant M289A; M289A, COS-7, CRE-Luc, vs basal, 0.2–1000 nM): 1.71 ± 0.46 Luc fold activation
receptor activity of mutant versus WT (CRE-luciferase) (tiTac3Ra mutant M289A; Met289^7.43Ala, 0.2–1000 nM peptide): substantial decrease in receptor activity
Max effect (Luc fold activation) (tiTac3Ra mutant F251A; F251A, COS-7, CRE-Luc, vs basal, 0.2–1000 nM): 2.0 ± 0.32 Luc fold activation
receptor activity of mutant versus WT (CRE-luciferase) (tiTac3Ra mutant F251A; Phe251^6.44Ala, 0.2–1000 nM peptide): substantial decrease in receptor activity

EC50 (nM) of CRE-luciferase receptor transactivation in transfected COS-7 cells, peptide 0.2-1000 nM [2]: 65.2 nM
Max effect (Luc fold activation), CRE-luciferase receptor transactivation in transfected COS-7 cells, peptide 0.2-1000 nM (Luc fold activation) [2]: 3.87
Min effective dose (nM), CRE-luciferase receptor transactivation in transfected COS-7 cells [2]: 0.316 nM
Max effect (Luc fold activation), CRE-luciferase receptor transactivation in transfected COS-7 cells, peptide 0.2-1000 nM (Luc fold activation) [3]: 1.99
Max effect (Luc fold activation), CRE-luciferase receptor transactivation in transfected COS-7 cells, peptide 0.2-1000 nM (Luc fold activation) [4]: 1.84
Molecule: YNDLDYDSFVGLM-NH2 [Tilapia NKF (neurokinin F)]

EC50 (nM) of CRE-luciferase receptor transactivation in transfected COS-7 cells, peptide 0.2-1000 nM [2]: 2.48 nM
Max effect (Luc fold activation), CRE-luciferase receptor transactivation in transfected COS-7 cells, peptide 0.2-1000 nM (Luc fold activation) [2]: 3.36
Min effective dose (nM), CRE-luciferase receptor transactivation in transfected COS-7 cells [2]: 0.316 nM
Max effect (Luc fold activation), CRE-luciferase receptor transactivation in transfected COS-7 cells, peptide 0.2-1000 nM (Luc fold activation) [3]: 2
Max effect (Luc fold activation), CRE-luciferase receptor transactivation in transfected COS-7 cells, peptide 0.2-1000 nM (Luc fold activation) [4]: 1.71
B1: Tilapia NKB (neurokinin B) (peptide)
peptide: EMDDIFIGLM
HELM: PEPTIDE1{[Glp].M.D.D.I.F.I.G.L.M.[am]}$$$$V2.0
SMILES: CC[C@H](C)[C@H](NC(=O)[C@H](Cc1ccccc1)NC(=O)[C@@H](NC(=O)[C@H](CC(=O)O)NC(=O)[C@H](CC(=O)O)NC(=O)[C@H](CCSC)NC(=O)[C@@H]1CCC(=O)N1)[C@@H](C)CC)C(=O)NCC(=O)N[C@@H](CC(C)C)C(=O)N[C@@H](CCSC)C(N)=O
